Assay results from PMC10011573, “Development of novel broad-spectrum antimicrobial lipopeptides derived from plantaricin NC8 β” (Scientific Reports, 2023).
Values after ≈ are worked out from the molar mass of the structure shown. Where two headings read alike, the source gives them in different places. Residues, ends and D or L forms follow the SMILES beside them. *: point of attachment. Pentanoyl = CCCCC(=O)*

Tests used:
A. baumannii = conditions: 20 h
E. coli (K-12 MG1655) = conditions: Table 3; K-12 MG1655; broth microdilution, 50:50 PBS/LB-broth, 200 µL, 20 h, 37 °C
E. faecium = conditions: 20 h
K. pneumoniae = conditions: 20 h
[1] = tested on: S. aureus (ATCC 29213, MSSA); conditions: ATCC 29213, 20 h
[2] = Dynamic light scattering, critical aggregation concentration; type: physicochemical; conditions: DLS scattering intensity at 90°, 10 mM PBS pH 7.4, serial dilution 100 µM to 0.01 nM, 22 °C, average of 10 runs of 30 s; estimated
Method: Lipopeptide aggregation was evaluated on a ALV/CGS-8F Platform (ALV-GmbH, Langen, Germany) equipped with a […] He–Ne laser. Scattered light was collected at 90°. PBS (10 mM, pH 7.4) was chosen as buffer, and filtered with a 0.22 µm filter prior to use. The samples were prepared in a cylindrical glass cuvette immersed in refractive-index matching toluene. The peptides were serially diluted between 100 µM and 0.01 nM, sonicated for 1 min and incubated for 5 min at 22 °C and vortexed prior to measuring. The temperature was controlled throughout the experiment with the use of a circulating water bath. Data were analysed with ALV-Correlator (Version 3.0, ALV-GmbH, Langen, Germany) software, and the scattering intensity was obtained through an average of 10 consecutive 30 s runs.

E. coli = tested on: E. coli
Method: (§1) In order to evaluate the risk of the development of resistance towards the lipopeptide, a serial passage assay was conducted. […] MIC and MBC were determined for passages 0, 10, 20 and 30, using the broth microdilution method and compared with the unexposed bacteria (passage 0).

S. aureus = tested on: S. aureus
Method: as §1

[3] = E. coli p0 (unexposed bacteria, passage 0)
[4] = E. coli p10, cultured with 1 µM L-6-C5 in LB-broth
[5] = E. coli p20, cultured with 1 µM L-6-C5 in LB-broth
[6] = E. coli p30, cultured with 1 µM L-6-C5 in LB-broth
[7] = S. aureus p0 (unexposed bacteria, passage 0)
[8] = S. aureus p10, cultured with 1 µM L-6-C5 in LB-broth
[9] = S. aureus p20, cultured with 1 µM L-6-C5 in LB-broth
[10] = S. aureus p30, cultured with 1 µM L-6-C5 in LB-broth

For `CCCCC(=O)N[C@@H](CC(C)C)C(=O)NCC(=O)N[C@H](C(=O)N[C@@H](CCCCN)C(=O)N[C@H](C(=O)N[C@@H](CC(C)C)C(=O)N[C@@H](Cc1c[nH]c2ccccc12)C(=O)N[C@@H](CO)C(=O)N[C@@H](C)C(=O)N[C@@H](Cc1ccc(O)cc1)C(=O)N[C@@H](CCCCN)C(=O)N[C@@H](Cc1c[nH]cn1)C(=O)N[C@@H](CCCNC(=N)N)C(=O)N[C@@H](CCCCN)C(=O)N[C@H](C(=O)N[C@H](C(N)=O)[C@@H](C)CC)[C@@H](C)O)[C@@H](C)CC)[C@@H](C)CC` [L-6-C5] (Pentanoyl-LGIKILWSAYKHRKTI-NH2), the MBC (A. baumannii) was 6.3 µM, the MIC (A. baumannii) was 3.1 µM and the “E. coli MBC” value (E. coli (K-12 MG1655)) was 6.2 µM. The “E. coli MIC” value (E. coli (K-12 MG1655)) was 6.2 µM, the MBC (E. faecium) was 12.5 µM and the MIC (E. faecium) was 6.3 µM. The MBC (K. pneumoniae) was 100 µM, the MIC (K. pneumoniae) was 50 µM and the “S. aureus MBC” value [1] was 6.2 µM. The “S. aureus MIC” value [1] was 6.2 µM, the “critical aggregation concentration (CAC)” value [2] was 5.6 µM and the MBC (E. coli; [3]) was 6.3 µM (≈ 12.7 µg/mL). The MIC (E. coli; [3]) was 6.3 µM (≈ 12.7 µg/mL), the MBC (E. coli; [4]) was 6.3 µM (≈ 12.7 µg/mL) and the MIC (E. coli; [4]) was 6.3 µM (≈ 12.7 µg/mL). The MBC (E. coli; [5]) was 6.3 µM (≈ 12.7 µg/mL), the MIC (E. coli; [5]) was 6.3 µM (≈ 12.7 µg/mL) and the MBC (E. coli; [6]) was 6.3 µM (≈ 12.7 µg/mL). It also gave an MIC (E. coli; [6]) of 6.3 µM (≈ 12.7 µg/mL), an MBC (S. aureus; [7]) of 6.3 µM (≈ 12.7 µg/mL) and an MIC (S. aureus; [7]) of 6.3 µM (≈ 12.7 µg/mL). It also gave an MBC (S. aureus; [8]) of 6.3 µM (≈ 12.7 µg/mL), an MIC (S. aureus; [8]) of 6.3 µM (≈ 12.7 µg/mL) and an MBC (S. aureus; [9]) of 6.3 µM (≈ 12.7 µg/mL). For the same compound, the MIC (S. aureus; [9]) was 6.3 µM (≈ 12.7 µg/mL), the MBC (S. aureus; [10]) was 6.3 µM (≈ 12.7 µg/mL) and the MIC (S. aureus; [10]) was 6.3 µM (≈ 12.7 µg/mL).
